The source of these data is ChEMBL document CHEMBL3784977, “Acetylcholinesterase and carbonic anhydrase inhibitory properties of novel urea and sulfamide derivatives incorporating dopaminergic 2-aminotetralin scaffolds” (Bioorg Med Chem, 2016).

The target in test [1] is T1, Acetylcholinesterase (Homo sapiens, UniProt P22303).
Description: Inhibition of AChE (unknown origin) using acetylcholine iodate as substrate preincubated for 10 mins followed by substrate addition by Ellman's method
The target of test [2] is T1, Acetylcholinesterase. The source holds these as a separate data set.
Description: Inhibition of AChE (unknown origin) using acetylcholine iodate as substrate preincubated for 10 mins followed by substrate addition by Lineweaver-Burk plot analysis
For test [3], the target named is Acetylcholinesterase (Electrophorus electricus, UniProt O42275).
Sequence of Acetylcholinesterase (Electrophorus electricus, UniProt O42275) (O42275 whole entry): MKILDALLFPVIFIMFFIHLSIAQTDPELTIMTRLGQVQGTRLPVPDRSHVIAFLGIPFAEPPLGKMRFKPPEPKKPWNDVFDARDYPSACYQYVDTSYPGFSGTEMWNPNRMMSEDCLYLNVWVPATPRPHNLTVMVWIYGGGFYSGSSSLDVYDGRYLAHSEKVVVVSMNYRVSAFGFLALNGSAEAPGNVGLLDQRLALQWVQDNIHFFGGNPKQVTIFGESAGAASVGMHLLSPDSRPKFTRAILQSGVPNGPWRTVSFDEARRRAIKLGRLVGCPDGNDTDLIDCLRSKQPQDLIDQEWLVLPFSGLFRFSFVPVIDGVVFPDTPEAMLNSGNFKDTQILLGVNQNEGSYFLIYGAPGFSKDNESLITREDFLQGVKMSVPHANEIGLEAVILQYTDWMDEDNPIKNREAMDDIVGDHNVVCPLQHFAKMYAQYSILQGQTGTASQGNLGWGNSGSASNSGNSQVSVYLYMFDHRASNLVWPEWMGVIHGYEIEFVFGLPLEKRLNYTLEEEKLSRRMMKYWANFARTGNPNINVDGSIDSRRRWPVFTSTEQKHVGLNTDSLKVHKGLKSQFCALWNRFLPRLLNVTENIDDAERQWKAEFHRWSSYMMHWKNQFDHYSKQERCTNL
Description: Inhibition of electric eel AChE using acetylthiocholine iodide as substrate preincubated for 10 mins followed by substrate addition by Lineweaver-Burk plot analysis

T1 sequence (P22303 whole entry): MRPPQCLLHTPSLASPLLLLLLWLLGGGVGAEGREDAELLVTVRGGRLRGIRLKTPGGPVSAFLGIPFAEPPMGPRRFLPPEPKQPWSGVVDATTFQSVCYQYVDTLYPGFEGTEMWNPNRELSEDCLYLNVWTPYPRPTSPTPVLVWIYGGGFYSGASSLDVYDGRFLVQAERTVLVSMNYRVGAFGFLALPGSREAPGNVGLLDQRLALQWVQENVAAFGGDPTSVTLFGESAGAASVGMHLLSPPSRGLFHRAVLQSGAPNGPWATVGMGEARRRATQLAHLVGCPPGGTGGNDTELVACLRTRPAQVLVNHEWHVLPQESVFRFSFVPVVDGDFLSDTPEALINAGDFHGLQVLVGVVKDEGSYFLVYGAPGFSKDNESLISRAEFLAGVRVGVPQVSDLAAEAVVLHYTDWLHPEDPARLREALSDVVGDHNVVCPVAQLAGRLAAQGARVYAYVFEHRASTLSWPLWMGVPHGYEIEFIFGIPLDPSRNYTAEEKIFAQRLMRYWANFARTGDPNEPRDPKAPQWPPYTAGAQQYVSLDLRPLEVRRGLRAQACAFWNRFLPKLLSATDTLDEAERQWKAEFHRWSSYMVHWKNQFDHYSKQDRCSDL

For the compound `COc1ccc2c(c1)CCC(NC(=O)N(C)C)C2` (stereo not drawn), half-maximal inhibition on Acetylcholinesterase [1] (IC50) was put at 16.4 nM. The affinity at Acetylcholinesterase [2], expressed as Ki, was 0.67 nM.

For the compound `CN(C)C(=O)N[C@H]1CCc2ccc(O)cc2C1`, at Acetylcholinesterase [1], it took 103 nM to reach half-maximal inhibition (IC50). Moreover, the affinity at Acetylcholinesterase [2], expressed as Ki, was 1.74 nM.

On to `Oc1ccc(O)cc1` [HYDROQUINONE], for which the affinity on Acetylcholinesterase [3], expressed as Ki, was 1.22 nM.

In turn, `CN(C)S(=O)(=O)N[C@H]1CCc2cc(O)ccc2C1` gave an IC50 on Acetylcholinesterase [1] of 27.9 nM. For the same compound, the affinity on Acetylcholinesterase [2] corresponds to a Ki of 1.22 nM.

As for `COc1cccc2c1CC[C@H](NC(=O)N(C)C)C2`, half-maximal inhibition on Acetylcholinesterase [1] (IC50) was put at 19.9 nM. This compound also came in with a Ki at Acetylcholinesterase [2] of 0.98 nM.

Take `COc1ccc2c(c1)CC(NS(=O)(=O)N(C)C)CC2` (stereo not drawn): inhibition at Acetylcholinesterase [1] was half-maximal at 15.8 nM (IC50). For the same compound, the affinity on Acetylcholinesterase [2], expressed as Ki, was 0.83 nM.

At Acetylcholinesterase [1], `COc1ccc2c(c1)CCC(NS(=O)(=O)N(C)C)C2` (stereo not drawn) gave an IC50 of 17 nM. Also, the Ki on Acetylcholinesterase [2] came out at 1.05 nM.

`CN(C)C(=O)N[C@H]1CCc2c(O)cccc2C1` came in with an IC50 against Acetylcholinesterase [1] of 132 nM. On Acetylcholinesterase [2], this compound returned a Ki of 1.59 nM.

Turning to `COc1ccc2c(c1)C[C@@H](NC(=O)N(C)C)CC2`, the IC50 at Acetylcholinesterase [1] was found to be 22.4 nM. The Ki at Acetylcholinesterase [2] worked out at 1.06 nM.

Regarding `CN(C)C(=O)NC1CCc2cc(O)ccc2C1` (stereo not drawn), the IC50 against Acetylcholinesterase [1] came to 7.16 nM. In addition, at Acetylcholinesterase [2], affinity was put at a Ki of 1.33 nM.

As to `CN(C)S(=O)(=O)NC1CCc2c(O)cccc2C1` (stereo not drawn), the midpoint of inhibition on Acetylcholinesterase [1], the IC50, lay at 30.9 nM. This compound also had a Ki on Acetylcholinesterase [2] of 1.34 nM.

`CN(C)S(=O)(=O)NC1CCc2ccc(O)cc2C1` (stereo not drawn) displayed an IC50 against Acetylcholinesterase [1] of 37 nM. In addition, the Ki on Acetylcholinesterase [2] is 0.72 nM.

The IC50 is the midpoint of a concentration-inhibition curve. A higher IC50 goes with weaker potency in that assay. A word on the Ki: it is the equilibrium dissociation constant of an inhibitor or competing ligand from its target.
